Values quoted from earlier work as cited in patent publication US9394312B1, “Ibrutinib prodrugs, pharmaceutical compositions thereof, and methods of use” (priority 2015, dated 2016).

Settings: humans, combined with a meal versus fasted

change of absolute bioavailability when combined with a meal: doubled
SMILES: C=CC(=O)N1CCC[C@@H](n2nc(-c3ccc(Oc4ccccc4)cc3)c3c(N)ncnc32)C1 [ibrutinib]
